In the NIST ThermoML archive (doi:10.1016/j.jct.2018.10.015):

Assay: xn = mol fraction of the nth substance listed
Conditions: 101.3 kPa, Liquid; for viscosity: Concentric cylinders viscometry; for mass density: Vibrating tube method

CCn1cc[n+](C)c1C.O=S(=O)([N-]S(=O)(=O)C(F)(F)F)C(F)(F)F + COC(=O)OC
Conditions	mass density [kg/m3]	viscosity [mPa·s]
293.15 K, x1 = 0.099	1189	1.706
293.15 K, x1 = 0.1994	1269.4	3.137
293.15 K, x1 = 0.298	1325	5.492
293.15 K, x1 = 0.4006	1368.1	9.266
293.15 K, x1 = 0.5003	1400.9	14.65
293.15 K, x1 = 0.5738	1420.8	20.1
293.15 K, x1 = 0.6927	1447.3	31.98
293.15 K, x1 = 0.8138	1469.2	49.28
293.15 K, x1 = 0.8951	1481.5	64.02
293.15 K, x1 = 1	1495.8	89.88
298.15 K, x1 = 0.099	1183	1.581
298.15 K, x1 = 0.1994	1263.8	2.849
298.15 K, x1 = 0.298	1319.6	4.9
298.15 K, x1 = 0.4006	1362.9	8.114
298.15 K, x1 = 0.5003	1395.7	12.58
298.15 K, x1 = 0.5738	1415.7	17.03
298.15 K, x1 = 0.6927	1442.3	26.57
298.15 K, x1 = 0.8138	1464.3	40.16
298.15 K, x1 = 0.8951	1476.7	51.6
298.15 K, x1 = 1	1491	71.34
303.15 K, x1 = 0.099	1177	1.469
303.15 K, x1 = 0.1994	1258.1	2.6
303.15 K, x1 = 0.298	1314.2	4.402
303.15 K, x1 = 0.4006	1357.7	7.169
303.15 K, x1 = 0.5003	1390.6	10.91
303.15 K, x1 = 0.5738	1410.6	14.6
303.15 K, x1 = 0.6927	1437.4	22.36
303.15 K, x1 = 0.8138	1459.4	33.22
303.15 K, x1 = 0.8951	1471.8	42.25
303.15 K, x1 = 1	1486.3	57.64
308.15 K, x1 = 0.099	1171	1.368
308.15 K, x1 = 0.1994	1252.4	2.383
308.15 K, x1 = 0.298	1308.8	3.98
308.15 K, x1 = 0.4006	1352.5	6.384
308.15 K, x1 = 0.5003	1385.5	9.555
308.15 K, x1 = 0.5738	1405.6	12.64
308.15 K, x1 = 0.6927	1432.4	19.05
308.15 K, x1 = 0.8138	1454.5	27.85
308.15 K, x1 = 0.8951	1467	35.08
308.15 K, x1 = 1	1481.5	47.26
313.15 K, x1 = 0.099	1164.8	1.276
313.15 K, x1 = 0.1994	1246.8	2.192
313.15 K, x1 = 0.298	1303.4	3.619
313.15 K, x1 = 0.4006	1347.3	5.728
313.15 K, x1 = 0.5003	1380.4	8.44
313.15 K, x1 = 0.5738	1400.5	11.05
313.15 K, x1 = 0.6927	1427.5	16.38
313.15 K, x1 = 0.8138	1449.7	23.62
313.15 K, x1 = 0.8951	1462.2	29.48
313.15 K, x1 = 1	1476.7	39.24
318.15 K, x1 = 0.099	1158.7	1.193
318.15 K, x1 = 0.1994	1241.2	2.023
318.15 K, x1 = 0.298	1298	3.308
318.15 K, x1 = 0.4006	1342.1	5.173
318.15 K, x1 = 0.5003	1375.3	7.511
318.15 K, x1 = 0.5738	1395.5	9.74
318.15 K, x1 = 0.6927	1422.6	14.24
318.15 K, x1 = 0.8138	1444.8	20.25
318.15 K, x1 = 0.8951	1457.4	25.06
318.15 K, x1 = 1	1472	33
323.15 K, x1 = 0.099	1152.5	1.114
323.15 K, x1 = 0.1994	1235.5	1.87
323.15 K, x1 = 0.298	1292.7	3.037
323.15 K, x1 = 0.4006	1336.9	4.699
323.15 K, x1 = 0.5003	1370.2	6.73
323.15 K, x1 = 0.5738	1390.5	8.649
323.15 K, x1 = 0.6927	1417.6	12.48
323.15 K, x1 = 0.8138	1440	17.52
323.15 K, x1 = 0.8951	1452.6	21.53
323.15 K, x1 = 1	1467.2	28.05
328.15 K, x1 = 0.099	1146.3	1.042
328.15 K, x1 = 0.1994	1230	1.737
328.15 K, x1 = 0.298	1287.3	2.802
328.15 K, x1 = 0.4006	1331.7	4.286
328.15 K, x1 = 0.5003	1365.2	6.083
328.15 K, x1 = 0.5738	1385.5	7.757
328.15 K, x1 = 0.6927	1412.7	11.06
328.15 K, x1 = 0.8138	1435.1	15.34
328.15 K, x1 = 0.8951	1447.8	18.72
328.15 K, x1 = 1	1462.4	24.16
